Results from US20110300154A1, “TREATMENT OF AIRWAY HYPERREACTIVITY” (CHILDREN'S MEDICAL CENTER CORPORATION, priority 2007, published 2011).
Entries after “also recorded” stand apart in the source; their conditions may differ.

Assays:
iNKT cells [1] = experiment: AHR (lung resistance to methacholine) after nebulized α-GalCer challenge, cross-over design; assay type: in vivo, cynomolgus monkeys
From the text: (§1) Four monkeys were challenged with α-GalCer or vehicle using a cross-over design (approved by animal care and use committees at the Children's Hospital Boston and the Charles River Laboratory), which minimized the effects of genetic variation and the differing past histories in each of the outbred monkeys. […] Each adult cynomolgus monkey was anesthetized, intubated and challenged with nebulized α-GalCer or vehicle. For safety reasons and to avoid any possible toxic effects of α-GalCer that might cause AHR, a dose escalation approach was used, starting with a very low dose of α-GalCer (150 μg/m^2), similar to the lowest doses used intravenously in Phase I safety studies in humans with solid tumors. Only one dose of α-GalCer was administered to the monkeys before evaluation of AHR, because following activation with α-GalCer, iNKT cells become anergic temporarily (53). 24 hours after challenge, the monkeys were reintubated and assessed for AHR by measuring lung resistance (RL) in response to increasing concentrations of methacholine.

iNKT cells [2] = conditions: cited from earlier work
iNKT cells [3] = experiment: BAL fluid secondary outcomes after α-GalCer challenge; assay type: in vivo, cynomolgus monkeys; conditions: monkeys, after α-GalCer vs vehicle
From the text: as §1

CCCCCCCCCCCCCCCCCCCCCCCCCC(=O)N[C@@H](CO[C@H]1O[C@H](CO)[C@H](O)[C@H](O)[C@H]1O)[C@H](O)[C@H](O)CCCCCCCCCCCCCC [α-GalCer, α-GalactosylCeramide]
percentage change in lung resistance (RL) from baseline compared to vehicle control (iNKT cells [1]; combined data of four monkeys, highest dose of methacholine, paired T test p=0.0003): significantly higher | AHR compared to challenge with vehicle control, monkeys responding (iNKT cells [1]; first very low inhaled dose 150 μg/m^2, 24 h after challenge, four monkeys): three of the four monkeys developed significantly increased AHR | AHR response of monkey B (non-responder to first dose) (iNKT cells [1]; higher dose 600 μg/m^2, 24 h after challenge): developed a significant AHR response | induction of airway hyperreactivity (AHR) (iNKT cells [1]; monkeys, α-GalCer challenge in the absence of ozone or allergen): induced AHR; also recorded: resulted in the development of significant AHR; also recorded: induces airway hyperreactivity | induction of AHR in wildtype / naïve mice (iNKT cells [2]; administered into the lungs / intranasally): causes AHR; also recorded: results in the development of AHR | induction of AHR / effects in iNKT (NKT) cell deficient mice (iNKT cells [2]; administered into the lungs): no effects | induction of AHR in class II−/− mice (lack conventional CD4+ T cells) (iNKT cells [2]; without allergen administration): functioned to induce AHR | increased IL-4 in the BAL fluid (secondary outcome) (iNKT cells [3]): did not reach statistical significance | increased eosinophils in the BAL fluid (secondary outcome) (iNKT cells [3]): did not reach statistical significance | increased iNKT cells in the BAL fluid (secondary outcome) (iNKT cells [3]): did not reach statistical significance | increased neutrophils in the BAL fluid (secondary outcome) (iNKT cells [3]): did not reach statistical significance
